Data from the supplement of paper PMC10307832.

Experiments:
Assay in all cases: relative viability (nuclei count vs DMSO), 5 days (fraction); higher = more cells survive
IU1-47 + AZD7762 = compound: CC1=CC(=C(N1C2=CC=C(C=C2)Cl)C)C(=O)CN3CCCCC3 [IU1-47] + NC(=O)Nc1cc(-c2cccc(F)c2)sc1C(=O)N[C@H]1CCCNC1 [AZD7762] (partner 0.2 µM)
Procedure, shortened: (§1)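 Values are medians from duplicate plates. Each reflects relative viability, defined as the nuclei count of treated wells over that of vehicle wells. Lung cancer cell lines in 1536-well plates were pin-tool dosed one day after seeding with one drug alone or with a fixed anchor-drug dose plus five library-drug doses (not always all listed) in √10 steps, then fixed, stained and imaged at 4× after 5 days.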

IU1-47 + Trametinib = compound: CC1=CC(=C(N1C2=CC=C(C=C2)Cl)C)C(=O)CN3CCCCC3 [IU1-47] + CC(=O)Nc1cccc(-n2c(=O)n(C3CC3)c(=O)c3c(Nc4ccc(I)cc4F)n(C)c(=O)c(C)c32)c1 [Trametinib] (partner 0.02 µM)
Procedure, shortened: as §1

IU1-47 + Pictilisib = compound: CC1=CC(=C(N1C2=CC=C(C=C2)Cl)C)C(=O)CN3CCCCC3 [IU1-47] + CS(=O)(=O)N1CCN(Cc2cc3nc(-c4cccc5[nH]ncc45)nc(N4CCOCC4)c3s2)CC1 [Pictilisib] (partner 1 µM)
Procedure, shortened: as §1

FG-4592 + Phenformin = compound: Cc1nc(C(=O)NCC(=O)O)c(O)c2ccc(Oc3ccccc3)cc12 [FG-4592] + N=C(N)NC(=N)NCCc1ccccc1 [Phenformin] (partner 250 µM)
Procedure, shortened: as §1

Row | Cell Line | relative viability (IU1-47 + AZD7762; first compound 0.08 µM) | relative viability (IU1-47 + AZD7762; first compound 0.253 µM) | relative viability (IU1-47 + AZD7762; first compound 0.8 µM) | relative viability (IU1-47 + AZD7762; first compound 2.53 µM) | relative viability (IU1-47 + AZD7762; first compound 8 µM) | relative viability (IU1-47 + Trametinib; first compound 0.08 µM) | relative viability (IU1-47 + Trametinib; first compound 0.253 µM) | relative viability (IU1-47 + Trametinib; first compound 0.8 µM) | relative viability (IU1-47 + Trametinib; first compound 2.53 µM) | relative viability (IU1-47 + Trametinib; first compound 8 µM) | relative viability (IU1-47 + Pictilisib; first compound 0.08 µM) | relative viability (IU1-47 + Pictilisib; first compound 0.253 µM) | relative viability (IU1-47 + Pictilisib; first compound 0.8 µM) | relative viability (IU1-47 + Pictilisib; first compound 2.53 µM) | relative viability (IU1-47 + Pictilisib; first compound 8 µM) | relative viability (FG-4592 + Phenformin; first compound 0.08 µM) | relative viability (FG-4592 + Phenformin; first compound 0.253 µM) | relative viability (FG-4592 + Phenformin; first compound 0.8 µM) | relative viability (FG-4592 + Phenformin; first compound 2.53 µM) | relative viability (FG-4592 + Phenformin; first compound 8 µM)
1 | NCI-H460 | 0.639 | 0.635 | 0.686 | 0.754 | 0.628 | 0.134 | 0.127 | 0.2 | 0.129 | 0.18 | 0.385 | 0.284 | 0.381 | 0.359 | 0.345 | 0.538 | 0.521 | 0.548 | 0.54 | 0.491
2 | HCC-15 | 1.15 | 1.5 | 1.4 | – | 1.23 | 0.415 | 0.384 | 0.384 | – | 0.469 | 0.8 | 0.703 | 0.76 | 0.427 | 0.65 | 0.524 | 0.424 | 0.533 | 0.462 | 0.503
3 | LCLC-103H | 0.84 | 0.948 | 0.797 | 0.54 | 0.807 | 0.71 | 0.817 | 0.701 | 0.647 | 0.7 | 0.586 | 0.566 | 0.624 | 0.509 | 0.639 | 0.3 | 0.325 | 0.248 | 0.294 | 0.319
4 | NCI-H441 | 1.38 | 1.36 | 1.19 | 1.18 | 1.21 | 0.37 | 0.338 | 0.395 | 0.595 | 0.439 | 0.483 | 0.486 | 0.464 | 0.504 | 0.43 | 0.876 | 0.69 | 0.928 | 0.686 | 0.848
5 | EPLC-272H | 0.232 | 0.205 | 0.226 | – | 0.217 | 0.259 | 0.28 | 0.264 | – | 0.258 | 0.301 | 0.318 | 0.313 | – | 0.185 | 0.323 | 0.237 | 0.268 | 0.274 | 0.31
